Results: patent US20250073255A1, “USE OF FA-TYPE LIPID COMPOUNDS IN PREPARATION OF NUCLEIC ACID DELIVERY REAGENT AND RELATED PRODUCT” (BEIJING BAISHIKANG PHARMACEUTICAL TECHNOLOGY (BSJPHARMA) …, priority 2021, published 2025)

Tested on: C57BL/6 male mice
Assay: In vivo delivery study of lipid nucleic acid mixture (oral gavage, RT-qPCR of PGY-sRNA-26 in tissues)
Parameters: species or system mouse
Details: for oral delivery of single-stranded sRNA nucleic acids into mouse blood / oral delivery of single-stranded sRNA nucleic acids into mouse brain tissue / oral delivery of single-stranded sRNA nucleic acids into mouse femur / oral delivery of single-stranded sRNA nucleic acids into mouse heart tissue / oral delivery of single-stranded sRNA nucleic acids into mouse intestinal tissue / oral delivery of single-stranded sRNA nucleic acids into mouse kidney tissue / oral delivery of single-stranded sRNA nucleic acids into mouse liver tissue / oral delivery of single-stranded sRNA nucleic acids into mouse lung tissue / oral delivery of single-stranded sRNA nucleic acids into mouse pancreatic tissue / oral delivery of single-stranded sRNA nucleic acids into mouse spleen tissue / oral delivery of single-stranded sRNA nucleic acids into mouse stomach tissue: 100 μg lipid:10 nmol PGY-sRNA-26, sampled after 12 hours; for oral delivery of single-stranded sRNA nucleic acids into mouse heart tissue: vs free uptake group; for oral delivery of single-stranded sRNA nucleic acids into mouse intestinal tissue: intestine; for oral delivery of single-stranded sRNA nucleic acids into mouse pancreatic tissue: pancreas; for overall delivery efficacy: delivering nucleic acids into each tissue and blood tested: 100 μg lipid:10 nmol PGY-sRNA-26, all tissues and blood tested
Procedure, shortened: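 Stem-loop RT and SYBR qPCR, normalized to U6, measured PGY-sRNA-26 in blood and organs 12 h after gavage. Dosing was 10 nmol sRNA with 100 μg lipid, pre-mixed and heated 15 min at 90 °C, in 12-h-fasted mice, against saline and free-sRNA groups.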

Row | SMILES | oral delivery of single-stranded sRNA nucleic acids into mouse blood | oral delivery of single-stranded sRNA nucleic acids into mouse brain tissue | oral delivery of single-stranded sRNA nucleic acids into mouse femur | oral delivery of single-stranded sRNA nucleic acids into mouse heart tissue | oral delivery of single-stranded sRNA nucleic acids into mouse intestinal tissue | oral delivery of single-stranded sRNA nucleic acids into mouse kidney tissue | oral delivery of single-stranded sRNA nucleic acids into mouse liver tissue | oral delivery of single-stranded sRNA nucleic acids into mouse lung tissue | oral delivery of single-stranded sRNA nucleic acids into mouse pancreatic tissue | oral delivery of single-stranded sRNA nucleic acids into mouse spleen tissue | oral delivery of single-stranded sRNA nucleic acids into mouse stomach tissue | overall delivery efficacy: delivering nucleic acids into each tissue and blood tested
1 | CCCCC/C=C\C/C=C\C/C=C\C/C=C\CCCC(=O)Nc1ccc(S(N)(=O)=O)cc1 [Lipid 826, (5Z,8Z,11Z,14Z)-N-(4-sulfamoylphenyl)icosa-5,8,11,14-tetraenamide] | can effectively orally deliver | can effectively orally deliver | can effectively orally deliver | can effectively orally deliver | can effectively orally deliver | can effectively orally deliver | can effectively orally deliver | can effectively orally deliver | can effectively orally deliver | can effectively orally deliver | can effectively orally deliver | 
2 | CCCCCCCCCCCCCC(C)=O [Lipid 593, pentadecan-2-one] | can effectively orally deliver | can effectively orally deliver | can effectively orally deliver | can effectively orally deliver | can effectively orally deliver | can effectively orally deliver | can effectively orally deliver | can effectively orally deliver |  | can effectively orally deliver | can effectively orally deliver | best delivery efficacy
3 | CCCCCCCCCCCCCC(=O)OCCCCCCCCCCCCCCC(C)C [Lipid 829, 15-methylhexadecyl tetradecanoate] | can effectively orally deliver | can effectively orally deliver | can effectively orally deliver | can effectively orally deliver | can effectively orally deliver | can effectively orally deliver | can effectively orally deliver | can effectively orally deliver | can effectively orally deliver | can effectively orally deliver | can effectively orally deliver | 
4 | CCCCCC/C=C\CCCCCCCC(=O)OC(CC)C(C)CCC (centres unmarked) [Lipid 827, 4-methylheptan-3-yl (Z)-hexadec-9-enoate] | can effectively orally deliver | can effectively orally deliver | can effectively orally deliver | can effectively orally deliver | can effectively orally deliver | can effectively orally deliver | can effectively orally deliver | can effectively orally deliver | can effectively orally deliver | can effectively orally deliver | can effectively orally deliver | 
5 | CC/C=C\C/C=C\C/C=C\CCCCCCCC(=O)OCCCCCCCCCCCCCC [Lipid 824, tetradecyl (9Z,12Z,15Z)-octadeca-9,12,15-trienoate] | can effectively orally deliver | can effectively orally deliver | can effectively orally deliver | can effectively orally deliver | can effectively orally deliver | can effectively orally deliver | can effectively orally deliver | can effectively orally deliver | can effectively orally deliver | can effectively orally deliver | can effectively orally deliver | 
6 | CCCCCC(=O)OCCCC [Lipid 613, butyl hexanoate] | can effectively orally deliver | can effectively orally deliver | can effectively orally deliver | can effectively orally deliver | can effectively orally deliver | can effectively orally deliver | can effectively orally deliver | can effectively orally deliver |  | can effectively orally deliver | can effectively orally deliver | best delivery efficacy
7 | CCCCCC/C=C\CCCCCCCC(=O)OCCCCCCCCCCCCCCCCCCCCCCCC [Lipid 819, tetracosyl (Z)-hexadec-9-enoate] | can effectively orally deliver | can effectively orally deliver | can effectively orally deliver | can effectively orally deliver | can effectively orally deliver | can effectively orally deliver | can effectively orally deliver | can effectively orally deliver | can effectively orally deliver | can effectively orally deliver | can effectively orally deliver | 
8 | CCCCCCCCCCCCCCCO [Lipid 609, pentadecan-1-ol] |  | can effectively orally deliver | can effectively orally deliver | can effectively orally deliver |  | can effectively orally deliver | can effectively orally deliver | can effectively orally deliver |  |  | can effectively orally deliver | 
9 | O=C(O)CCCCCCCCCCCCCC(=O)O [Lipid 572, pentadecanedioic acid] | can effectively orally deliver | can effectively orally deliver | can effectively orally deliver | can effectively orally deliver | can effectively orally deliver | can effectively orally deliver | can effectively orally deliver |  |  | can effectively orally deliver | can effectively orally deliver | 
10 | C=C(C)CCOC(=O)CCCCCCCCCCCCCCCCCCCCC [Lipid 815, 3-methylbut-3-enyl docosanoate] | can effectively orally deliver | can effectively orally deliver | can effectively orally deliver | can effectively orally deliver | can effectively orally deliver | can effectively orally deliver | can effectively orally deliver | can effectively orally deliver | can effectively orally deliver | can effectively orally deliver | can effectively orally deliver | 
